Here are results for nine compounds from BindingDB's records for patent US20260070887 (Shenzhen Zhongge Biological Technology Co., 2026).

This experiment concerns the target T1, Kinesin-like protein KIF18A (Homo sapiens, UniProt Q8NI77).
T1 sequence (Q8NI77 whole entry): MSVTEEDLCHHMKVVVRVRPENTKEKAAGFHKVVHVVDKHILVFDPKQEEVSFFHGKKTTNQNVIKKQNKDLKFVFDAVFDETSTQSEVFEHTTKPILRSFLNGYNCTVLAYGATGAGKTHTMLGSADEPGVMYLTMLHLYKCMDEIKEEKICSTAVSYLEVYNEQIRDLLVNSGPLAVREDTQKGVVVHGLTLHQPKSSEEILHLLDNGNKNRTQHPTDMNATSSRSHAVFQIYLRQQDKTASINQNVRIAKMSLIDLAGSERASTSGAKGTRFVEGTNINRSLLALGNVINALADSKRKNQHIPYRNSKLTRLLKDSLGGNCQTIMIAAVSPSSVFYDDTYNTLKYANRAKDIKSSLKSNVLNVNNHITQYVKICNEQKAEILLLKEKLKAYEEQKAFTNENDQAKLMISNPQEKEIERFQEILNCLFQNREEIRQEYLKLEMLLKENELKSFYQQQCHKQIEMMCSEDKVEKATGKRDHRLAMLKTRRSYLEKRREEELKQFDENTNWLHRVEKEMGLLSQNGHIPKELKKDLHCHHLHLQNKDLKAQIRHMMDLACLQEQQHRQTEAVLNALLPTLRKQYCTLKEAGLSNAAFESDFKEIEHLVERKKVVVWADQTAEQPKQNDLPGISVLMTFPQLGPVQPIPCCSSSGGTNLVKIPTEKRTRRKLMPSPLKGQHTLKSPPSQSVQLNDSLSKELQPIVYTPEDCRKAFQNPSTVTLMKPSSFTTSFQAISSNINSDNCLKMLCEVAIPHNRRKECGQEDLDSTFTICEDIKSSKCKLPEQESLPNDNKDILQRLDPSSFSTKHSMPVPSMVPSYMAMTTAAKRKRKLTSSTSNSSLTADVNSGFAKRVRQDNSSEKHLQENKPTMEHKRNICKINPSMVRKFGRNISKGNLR
Put plainly: Assay of the Inhibitory Effects on KIF18A Activity In Vitro (ADP-Glo Assay). On the procedure: Experimental Method 1. Preparation of 30 mL of reaction buffer: (1) 450 μL 1M Tris-HCl (pH=7.5)+300 μL 1M MgCl2+30 μL 10% Pluronic F-68 (ThermoFisher, 24040032-100 ml); (2) adjusting pH to 7.5, and adding water to adjust the volume to 30 mL. 2. Preparation of a 5 mg/mL pig microtubule (Microtubules; MT) (Cytoskeleton Inc, MT002) stock solution: (1) 10 mL PM buffer=150 μL 1 M PIPES (pH 7.0)+20 μL 0.5 mM MgCl2+100 μL 2 mM Taxol (Cytoskeleton Inc, TXD01)+9730 μL water. (2) MT (500 ag/tube): Adding 100 μL PM buffer to prepare a 5 mg/mL stock solution. Keeping the MT (Cytoskeleton Inc, MT002) at room temperature for 10-15 minutes, gently mixing and storing same at −80° C. 3. Preparation of 2 mL of kinase buffer: 2 mL reaction buffer+1 μL 2 mM Taxol (Cytoskeleton Inc, TXD01)+12 μL 5 mg/mL MT (Cytoskeleton Inc, MT002). 4. Preparation of 2×KIF18A (30 nM) (ChemPartner, CPB-P22-31645) working solution: 2.4 μL 10 μM KIF18A (ChemPartner, CPB-P22-31645)+800 μL 1× kinase buffer. 5. Preparation of 2×ATP (150 μM) (Promega, G9101) working solution: 12 μL 10 mM ATP+800 μL 1× kinase buffer. 6. 25 nL of compound was transferred to a 384-well plate using Echo650. 7. 2.5 μL of 2×KIF18A from Step 4 (final concentration of 30 nM) was added to the 384-well plate and the plate was incubated at 25° C. for 15 minutes. 8. 2.5 μL of 2×ATP from Step 5 (final concentration of 150 μM) was added to the 384-well plate and the plate was incubated at 25° C. for 15 minutes. 9. 5 μL ADP-Glo™ Reagent (Promega, G9101) was added to the 384-well plate and the plate was incubated at 25° C. for 40 minutes. 10. 10 μL of kinase detection reagent (Promega, G9101) was added to the 384-well plate and the plate was incubated at 25° C. for 40 minutes. 11. Luminescence values were measured using the EnVision Xcite Multilabel Reader (PerkinElmer, 2105-0020).
Regarding `Nc1ccc(S(=O)(=O)Nc2ccc(C(=O)Nc3ccnc4c3CCN4CC3CC3)c(N3CCC4(CC3)CC4)c2)c(CCO)c1` [US20260070887, Example 32], the 50% inhibitory concentration (IC50) entry was “in the range around 275 nM”. As for `Nc1ccc(S(=O)(=O)Nc2ccc(C(=O)Nc3ccnc4c3ccn4CC3CC3)c(N3CCC4(CC3)CC4)c2)c(CCO)c1` [US20260070887, Example 33], the IC50 was below 50 nM. `COc1ccc(C(=O)Nc2cccc3c2ccn3CC2CC2)c(N2CCC3(CC2)CC3)c1` [US20260070887, Example 127]: the IC50 was below 50 nM. Then `COc1ccc(NC(=O)c2ccc(NS(=O)(=O)CCO)cc2N2CCC3(CC2)CC3)c2cc3n(c12)CCOC3` [US20260070887, Example 404], with below 50 nM; and `COC1c2cc3c(NC(=O)c4ccc(NS(=O)(=O)CCO)cc4N4CCC(=C(F)F)CC4)ccc(C#N)c3n2CCC1(F)F` (centres undefined) [US20260070887, Example 427], with below 50 nM; and `CC1(C)Cn2c(cc3c(NC(=O)c4cnc(NS(=O)(=O)CCO)cc4N4CCC5(CC4)CC5)cccc32)CO1` [US20260070887, Example 454], with below 50 nM. Then `COc1ccc(NC(=O)c2ccc(NS(=O)(=O)CCO)cc2N2CCC3(CC2)CC3)c2cc3n(c12)CCC(F)(F)C3` [US20260070887, Example 478], with below 50 nM; and `CC1(C)Cn2c(cc3c(NC(=O)c4ccc(NS(=O)(=O)c5ccc(N)cc5CCO)cc4N4CCC5(CC4)CC5)ccc(F)c32)CO1` [US20260070887, Example 519], with “in the range around 275 nM”; and `CC1(C)Cn2c(cc3c(NC(=O)c4ccc(NS(=O)(=O)CCO)cc4N4CCC(=C(F)F)CC4)ccc(Cl)c32)CO1` [US20260070887, Example 522], with below 50 nM.
